Assay results from US9402399B2, “Pesticidal mixtures including isoxazoline derivatives” (Syngenta Participations AG, priority 2011, dated 2016).

Test system: Tetranychus urticae
Test: Tetranychus urticae (Two Spotted Spider Mite) contact/feeding activity, adult mortality on sprayed bean plants
Assay type: in vivo
Description: Tetranychus urticae (Two Spotted Spider Mite)
(Contact/Feeding Activity)
Bean plants are infested with mite populations of mixed ages. 1 day after infestation, plants are treated in a spray chamber with diluted test solutions. 1 and 8 days later, samples are checked for adult mortality. 2 replicates per treatment were evaluated.
Data is not shown for experiments where there was no insect mortality when the compounds were applied alone and in combination. When a compound applied alone gave no control at a particular rate, it is assumed that lower rates of that compound alone also give no control.

Question: `CC1(C)[C@H](C(=O)O[C@H](C#N)c2cccc(Oc3ccccc3)c2)[C@@H]1/C=C(\Cl)C(F)(F)F` (racemic) [LCYH, lambda cyhalothrin] was tested. Which “LCYH observed control %” value (LCYH alone 0.781 ppm) did it give?
Answer: 0%

Question: What about the “LCYH observed control %” value (LCYH alone 1.562 ppm) of the same molecule?
Answer: 0%

Question: And the “LCYH observed control %” value (LCYH alone 3.125 ppm)?
Answer: 0%

Question: What about the “LCYH observed control %” value (LCYH alone 6.25 ppm) of the same molecule?
Answer: 25%

Question: What about the “LCYH observed control %” value (LCYH alone 12.5 ppm) of the same molecule?
Answer: 75%

Question: What about the “LCYH observed control %” value (LCYH alone 25 ppm) of the same molecule?
Answer: 80%

Question: And the “LCYH observed control %” value (LCYH alone 50 ppm)?
Answer: 85%

Question: What about the “LCYH observed control %” value (LCYH alone 100 ppm) of the same molecule?
Answer: 95%

Question: With `CC(C)c1cc(Oc2ccccc2)cc(C(C)C)c1NC(=S)NC(C)(C)C` [DFN, diafenthiuron] as the molecule, how does the “DFN observed control %” value (DFN alone 1.562 ppm) read?
Answer: 0%

Question: And the “DFN observed control %” value (DFN alone 3.125 ppm)?
Answer: 0%

Question: What about the “DFN observed control %” value (DFN alone 6.25 ppm) of the same molecule?
Answer: 25%

Question: What about the “DFN observed control %” value (DFN alone 12.5 ppm) of the same molecule?
Answer: 60%

Question: What about the “DFN observed control %” value (DFN alone 25 ppm) of the same molecule?
Answer: 95%

Question: How did the “TMX observed control %” value (TMX alone 50 ppm) turn out when `CN1COCN(Cc2cnc(Cl)s2)/C1=N\[N+](=O)[O-]` [TMX, thiamethoxam] was run?
Answer: 0%

Question: What about the “TMX observed control %” value (TMX alone 100 ppm) of the same molecule?
Answer: 0%

Question: And the “TMX observed control %” value (TMX alone 200 ppm)?
Answer: 0%

Question: What about the “TMX observed control %” value (TMX alone 400 ppm) of the same molecule?
Answer: 0%
